Assay results reported in US6762180B1, “Substituted indolines which inhibit receptor tyrosine kinases” (Boehringer Ingelheim Pharma KG, priority 1999, dated 2004).

System: not given
Assay: not given
Conditions: not given
In the case of `COC(=O)c1ccc2c(c1)NC(=O)/C2=C(\Nc1ccc(Cc2ccccc2)cc1)c1ccccc1` [Example 3(60), 3-Z-[1-(4-benzyl-anilino)-1-phenyl-methylene]-6-methoxycarbonyl-2-indolinone], the melting point is reported as 224 °C.

System: Human umbilical endothelial cells (HUVEC)
Assay: Inhibition of VEGF165-stimulated HUVEC proliferation (3H-thymidine incorporation)
Type: cell-based
Conditions: HUVEC starved 16 hours, stimulated with 5 ng/ml VEGF165 and 10 μg/ml heparin, 76 hours incubation, then 16 hours 3H-thymidine
Protocol: Human umbilical endothelial cells (HUVEC) were cultivated in IMDM (Gibco BRL), supplemented with 10% foetal calf serum (FBS) (Sigma), 50 μM of β-mercaptoethanol (Fluka), standard antibiotics, 15 μg/ml of endothelial cell growth factor (ECGS, Collaborative Biomedical Products) and 100 μg/ml of heparin (Sigma) on gelatine-coated culture dishes (0.2% gelatine, Sigma) at 37° C., under 5% CO2 in a water-saturated atmosphere.
In order to investigate the inhibitory activity of the compounds according to the invention the cells were starved for 16 hours, i.e. kept in culture medium without growth factors (ECGS+heparin). The cells were detached from the culture dishes using trypsin/EDTA and washed once in serumontaining medium. Then they were seeded out in amounts of 2.5×10^3 cells per well.
The proliferation of the cells was stimulated with 5 ng/ml of VEGF165 (vascular endothelial growth factor; H. Weich, GBF Braunschweig) and 10 μg/ml of heparin. As a control, 6 wells in each dish were not stimulated.
The compounds according to the invention were dissolved in 100% dimethylsulphoxide and added to the cultures in various dilutions in triplicate, the maximum dimethyl sulphoxide concentration being 0.3%.
The cells were incubated for 76 hours at 37° C., then for a further 16 hours ^3H-thymidine (0.1 μCi/well, Amersham) was added in order to determine the DNA synthesis. Then the radioactively labelled cells were immnobilised on filter mats and the radioactivity incorporated was measured in a β-counter. In order to determine the inhibitory activity of the compounds according to the invention the mean value of the non-stimulated cells was subtracted from the mean value of the factor-stimulated cells (in the presence or absence of the compounds according to the invention).
The relative cell proliferation was calculated as a percentage of the control (HUVEC without inhibitor) and the concentration of active substance which inhibits the proliferation of the cells by 50% (IC50) was determined.
Work on `CCOC(=O)c1ccc2c(c1)NC(=O)/C2=C(\Nc1ccc(CN2CCCCC2)cc1)c1ccccc1` [(a), 3-Z-[1-(4-(piperidin-1-yl-methyl)-anilino)-1-phenyl-methylene]-6-ethoxycarbonyl-2-indolinone] yielded an IC50 of 40 nM. For `NC(=O)c1ccc2c(c1)NC(=O)/C2=C(\Nc1ccc(CN2CCCCC2)cc1)c1ccccc1` [(b), 3-Z-[1-(4-(piperidin-1-yl-methyl)-anilino)-1-phenyl-methylene]-6-carbamoyl-2-indolinone], the IC50 was 350 nM. With `COC(=O)c1ccc2c(c1)NC(=O)/C2=C(\Nc1ccc(CN2CCCCC2)cc1)c1ccccc1` [(c), 3-Z-[1-(4-(piperidin-1-yl-methyl)-anilino)-1-phenyl-methylene]-6-methoxycarbonyl-2-indolinone] the IC50 was 10 nM. `CCOC(=O)c1ccc2c(c1)NC(=O)/C2=C(\Nc1ccc(CN(C)C)cc1)c1ccccc1` [(d), 3-Z-[1-(4-(dimethylaminomethyl)-anilino)-1-phenyl-methylene]-6-ethoxycarbonyl-2-indolinone] showed an IC50 of 20 nM. Work on `CCOC(=O)c1ccc2c(c1)NC(=O)/C2=C(\Nc1ccc(CN2C(C)CCCC2C)cc1)c1ccccc1` (centres unmarked) [(e), 3-Z-[1-(4-((2,6-dimethyl-piperidin-1-yl)-methyl)-anilino)-1-phenyl-methylene]-6-ethoxycarbonyl-2-indolinone] yielded an IC50 of 50 nM. `CCOC(=O)c1ccc2c(c1)NC(=O)/C2=C(\Nc1ccc(N(CCN(C)C)C(C)=O)cc1)c1ccccc1` [(f), 3-Z-[1-(4-(N-(2-dimethylamino-ethyl)-N-acetyl-amino)-anilino)-1-phenyl-methylene]-6-ethoxycarbonyl-2-indolinone] showed an IC50 of 10 nM. In the case of `CCOC(=O)c1ccc2c(c1)NC(=O)/C2=C(\Nc1ccc(N(CCCN(C)C)C(C)=O)cc1)c1ccccc1` [(g), 3-Z-[1-(4-(N-(3-dimethylamino-propyl)-N-acetyl-amino)-anilino)-1-phenyl-methylene]-6-ethoxycarbonyl-2-indolinone], the IC50 is reported as 3 nM. For `CCOC(=O)c1ccc2c(c1)NC(=O)/C2=C(\Nc1ccc(N(CCN(C)C)S(C)(=O)=O)cc1)c1ccccc1` [(h), 3-Z-[1-(4-(N-(2-dimethylamino-ethyl)-N-methylsulphonyl-amino)-anilino)-1-phenyl-methylene]-6-ethoxycarbonyl-2-indolinone], the IC50 was 10 nM. `COC(=O)c1ccc2c(c1)NC(=O)/C2=C(\Nc1ccc(CN(C)C)cc1)c1ccccc1` [(i), 3-Z-[1-(4-(dimethylaminomethyl)-anilino)-1-phenyl-methylene]-6-methoxycarbonyl-2-indolinone] gave an IC50 of 30 nM. `COC(=O)c1ccc2c(c1)NC(=O)/C2=C(\Nc1ccc(N(CC(=O)N(C)C)C(C)=O)cc1)c1ccccc1` [(j), 3-Z-[1-(4-(N-acetyl-N-dimethylaminocarbonylmethyl-amino)-anilino)-1-phenyl-methylene]-6-methoxycarbonyl-2-indolinone] gave an IC50 of 20 nM. With `CCNCc1ccc(N/C(=C2\C(=O)Nc3cc(C(=O)OC)ccc32)c2ccccc2)cc1` [(k), 3-Z-[1-(4-ethylaminomethyl-anilino)-1-phenyl-methylene]-6methoxycarbonyl-2-indolinone] the IC50 was 30 nM. Molecule `COC(=O)c1ccc2c(c1)NC(=O)/C2=C(\Nc1ccc(-c2nccn2C)cc1)c1ccccc1` [(l), 3-Z-[1-(4-(1-methyl-imidazol-2-yl)-anilino)-1-phenyl-methylene]-6-methoxycarbonyl-2-indolinone] has an IC50 of 100 nM. With `COC(=O)c1ccc2c(c1)NC(=O)/C2=C(\Nc1ccc(N(C)C(=O)CN(C)C)cc1)c1ccccc1` [(m), 3-Z-[1-(4-(N-dimethylaminomethylcarbonyl-N-methyl-amino)-anilino)-1-phenyl-methylene]-6-methoxycarbonyl-2-indolinone] the IC50 was 20 nM. `COC(=O)c1ccc2c(c1)NC(=O)/C2=C(\Nc1ccc(N(CCN(C)C)S(C)(=O)=O)cc1)c1ccccc1` [(n), 3-Z-[1-(4-(N-(2-dimethylamino-ethyl)-N-methylsulphonyl-amino)-anilino)-1-phenyl-methylene]-6-methoxycarbonyl-2-indolinone] showed an IC50 of 20 nM. Molecule `COC(=O)c1ccc2c(c1)NC(=O)/C2=C(\Nc1ccc(N(CCCN(C)C)S(C)(=O)=O)cc1)c1ccccc1` [(o), 3-Z-[1-(4-(N-(3-dimethylamino-propyl)-N-methylsulphonyl-amino)-anilino)-1-phenyl-methylene]-6methoxycarbonyl-2-indolinone] has an IC50 of 10 nM. Work on `COC(=O)c1ccc2c(c1)NC(=O)/C2=C(\Nc1ccc(N(CC(=O)N(C)C)S(C)(=O)=O)cc1)c1ccccc1` [(p), 3-Z-[1-(4-(N-dimethylaminocarbonylmethyl-N-methylsulphonyl-amino)-anilino)-1-phenyl-methylene]-6-methoxycarbonyl-2-indolinone] yielded an IC50 of 20 nM. Molecule `COC(=O)c1ccc2c(c1)NC(=O)/C2=C(\Nc1ccc(N(C)C(=O)CCN(C)C)cc1)c1ccccc1` [(q), 3-Z-[1-(4-(N-((2-dimethylamino-ethyl)-carbonyl)-N-methyl-amino)-anilino)-1-phenyl-methylene]-6-methoxycarbonyl-2-indolinone] has an IC50 of 20 nM. With `COC(=O)c1ccc2c(c1)NC(=O)/C2=C(\Nc1ccc(N(CCN(C)C)C(C)=O)cc1)c1ccccc1` [(r), 3-Z-[1-(4-(N-(2-dimethylamino-ethyl)-N-acetyl-amino)-anilino)-1-phenyl-methylene]-6-methoxycarbonyl-2-indolinone] the IC50 was 10 nM. With `CNCc1ccc(N/C(=C2\C(=O)Nc3cc(C(=O)OC)ccc32)c2ccccc2)cc1` [(s), 3-Z-[1-(4methylaminomethyl-anilino)-1-phenyl-methylene]-6-methoxycarbonyl-2-indolinone] the IC50 was 40 nM.
